The source of these data is paper PMC5218480 (PLoS ONE, 2017).

The subject of the experiment is MV-4-11 cells. Description: Gene expression microarray analysis (Affymetrix PrimeView) and GSEA. The format is cell-based, human. Details: RFU PODN (11730768_x_at) / Fold change /veh PODN (11730768_x_at) / RFU LINC00158 (11744669_a_at) / Fold change /veh LINC00158 (11744669_a_at) / RFU DUSP10 (11751237_a_at) / Fold change /veh DUSP10 (11751237_a_at) / RFU ID3 (11757404_x_at) / Fold change /veh ID3 (11757404_x_at) / RFU PLEKHG5 (11737974_s_at) / Fold change /veh PLEKHG5 (11737974_s_at) / RFU LRRC4B (11730491_at) / Fold change /veh LRRC4B (11730491_at) / RFU GIMAP4 (11747438_a_at) / Fold change /veh GIMAP4 (11747438_a_at) / RFU KRT8 (11758183_x_at) / Fold change /veh KRT8 (11758183_x_at) / RFU CNN1 (11734310_a_at) / Fold change /veh CNN1 (11734310_a_at) / RFU VPS37D (11726825_at) / Fold change /veh VPS37D (11726825_at) / RFU C10orf10 (11716522_x_at) / Fold change /veh C10orf10 (11716522_x_at) / RFU KIR2DL2 /// KIR2DL4 /// KIR2DL5A /// KIR2DL5B /// KIR2DS1 /// KIR2DS2 /// KIR2DS3 /// KIR2DS4 /// KIR3DL3 /// KIR3DL3 /// KIR3DS1 (11738374_at) / Fold change /veh KIR2DL2 /// KIR2DL4 /// KIR2DL5A /// KIR2DL5B /// KIR2DS1 /// KIR2DS2 /// KIR2DS3 /// KIR2DS4 /// KIR3DL3 /// KIR3DL3 /// KIR3DS1 (11738374_at) / RFU C1QL1 (11718748_at) / Fold change /veh C1QL1 (11718748_at) / RFU TMPRSS4 (11747572_a_at) / Fold change /veh TMPRSS4 (11747572_a_at) / RFU HAMP (11756126_x_at) / Fold change /veh HAMP (11756126_x_at) / RFU RNFT2 (11725882_a_at) / Fold change /veh RNFT2 (11725882_a_at) / RFU NR4A2 (11747474_a_at) / Fold change /veh NR4A2 (11747474_a_at) / RFU ABCC12 (11746883_a_at) / Fold change /veh ABCC12 (11746883_a_at) / RFU TMEM136 (11760407_x_at) / Fold change /veh TMEM136 (11760407_x_at) / RFU CLDN22 /// WWC2 (11732394_at) / Fold change /veh CLDN22 /// WWC2 (11732394_at) / RFU HLA-DPB1 (11760878_x_at) / Fold change /veh HLA-DPB1 (11760878_x_at) / RFU SPINT1 (11716480_a_at) / Fold change /veh SPINT1 (11716480_a_at) / RFU GAP43 (11754022_s_at) / Fold change /veh GAP43 (11754022_s_at) / RFU A4GNT (11735810_at) / Fold change /veh A4GNT (11735810_at) / RFU PRB3 (11715151_x_at) / Fold change /veh PRB3 (11715151_x_at) / RFU TUBB4B (11761932_at) / Fold change /veh TUBB4B (11761932_at) / RFU CAPN14 (11732068_a_at) / Fold change /veh CAPN14 (11732068_a_at) / RFU TMCC2 (11721928_a_at) / Fold change /veh TMCC2 (11721928_a_at) / RFU IRGQ (11745062_a_at) / Fold change /veh IRGQ (11745062_a_at) / RFU FAM174B (11720279_a_at) / Fold change /veh FAM174B (11720279_a_at) / RFU TMPRSS4 (11748680_a_at) / Fold change /veh TMPRSS4 (11748680_a_at) / RFU FAM212B (11763350_a_at) / Fold change /veh FAM212B (11763350_a_at) / RFU PLEKHG5 (11743358_a_at) / Fold change /veh PLEKHG5 (11743358_a_at) / RFU ZSCAN30 (11745921_a_at) / Fold change /veh ZSCAN30 (11745921_a_at) / RFU CMKLR1 (11741424_a_at) / Fold change /veh CMKLR1 (11741424_a_at) / RFU LOC101060620 /// MAPK8IP1 (11723275_at) / Fold change /veh LOC101060620 /// MAPK8IP1 (11723275_at) / RFU SPTSSB (11747773_x_at) / Fold change /veh SPTSSB (11747773_x_at) / RFU PRSS12 (11739890_at) / Fold change /veh PRSS12 (11739890_at) / RFU BIN1 (11741810_x_at) / Fold change /veh BIN1 (11741810_x_at) / RFU WNT11 (11732464_a_at) / Fold change /veh WNT11 (11732464_a_at) / RFU C10orf10 (11716521_a_at) / Fold change /veh C10orf10 (11716521_a_at) / RFU C5orf56 (11738089_at) / Fold change /veh C5orf56 (11738089_at) / RFU CYB561 (11721691_x_at) / Fold change /veh CYB561 (11721691_x_at) / RFU ANKRD19P (11752326_a_at) / Fold change /veh ANKRD19P (11752326_a_at) / RFU OR2T12 /// OR2T33 /// OR2T8 (11738714_s_at) / Fold change /veh OR2T12 /// OR2T33 /// OR2T8 (11738714_s_at) / RFU VCAN (11748164_a_at) / Fold change /veh VCAN (11748164_a_at) / RFU JSRP1 (11732532_at) / Fold change /veh JSRP1 (11732532_at) / RFU KRTAP10-11 (11738290_x_at) / Fold change /veh KRTAP10-11 (11738290_x_at) / RFU MYO3A (11730013_a_at) / Fold change /veh MYO3A (11730013_a_at) / RFU EBF3 (11725865_a_at) / Fold change /veh EBF3 (11725865_a_at) / RFU CAMK2N1 (11719241_x_at) / Fold change /veh CAMK2N1 (11719241_x_at) / RFU C5orf56 (11738088_a_at) / Fold change /veh C5orf56 (11738088_a_at) / RFU OLFML3 (11715873_a_at) / Fold change /veh OLFML3 (11715873_a_at) / RFU LOC100653217 /// NTM (11731650_a_at) / Fold change /veh LOC100653217 /// NTM (11731650_a_at) / RFU MAPK11 (11762145_a_at) / Fold change /veh MAPK11 (11762145_a_at) / RFU FIZ1 (11724087_x_at) / Fold change /veh FIZ1 (11724087_x_at) / RFU OASL (11726364_x_at) / Fold change /veh OASL (11726364_x_at) / RFU SOX15 (11748057_x_at) / Fold change /veh SOX15 (11748057_x_at) / RFU CD79A (11719716_a_at) / Fold change /veh CD79A (11719716_a_at) / RFU HIST1H1D (11736915_at) / Fold change /veh HIST1H1D (11736915_at) / RFU CASKIN2 (11723855_a_at) / Fold change /veh CASKIN2 (11723855_a_at) / RFU LOC730098 (11760151_x_at) / Fold change /veh LOC730098 (11760151_x_at) / RFU OR4N2 (11742367_at) / Fold change /veh OR4N2 (11742367_at) / RFU PRRT2 (11749266_a_at) / Fold change /veh PRRT2 (11749266_a_at) / RFU SNX32 (11753110_a_at) / Fold change /veh SNX32 (11753110_a_at) / RFU CDHR5 (11726645_a_at) / Fold change /veh CDHR5 (11726645_a_at) / RFU RCAN1 (11760418_a_at) / Fold change /veh RCAN1 (11760418_a_at) / RFU FAM167A (11723789_a_at) / Fold change /veh FAM167A (11723789_a_at) / RFU FAM26E (11764081_at) / Fold change /veh FAM26E (11764081_at) / RFU ISYNA1 (11749810_s_at) / Fold change /veh ISYNA1 (11749810_s_at) / RFU ACY1 (11761880_at) / Fold change /veh ACY1 (11761880_at) / RFU 11764098_at / Fold change /veh 11764098_at / RFU SAMD14 (11745864_x_at) / Fold change /veh SAMD14 (11745864_x_at) / RFU NPB (11741838_a_at) / Fold change /veh NPB (11741838_a_at) / RFU TMPRSS6 (11731388_a_at) / Fold change /veh TMPRSS6 (11731388_a_at) / RFU KRTAP10-2 (11738614_at) / Fold change /veh KRTAP10-2 (11738614_at) / RFU ARHGAP8 /// PRR5-ARHGAP8 (11727945_x_at) / Fold change /veh ARHGAP8 /// PRR5-ARHGAP8 (11727945_x_at) / RFU KRTAP5-7 /// NADSYN1 (11734609_at) / Fold change /veh KRTAP5-7 /// NADSYN1 (11734609_at) / RFU RASL12 (11751679_a_at) / Fold change /veh RASL12 (11751679_a_at) / RFU CDKN2B (11736163_a_at) / Fold change /veh CDKN2B (11736163_a_at) / RFU PRF1 (11729649_at) / Fold change /veh PRF1 (11729649_at) / RFU, ZNF638 /// ZNF638-IT1 / Fold change vs veh, ZNF638 /// ZNF638-IT1 / RFU, PANK3 / Fold change vs veh, PANK3 / RFU, SH3YL1 / Fold change vs veh, SH3YL1 / RFU, ZEB2 / Fold change vs veh, ZEB2 / RFU, NRIP1 / Fold change vs veh, NRIP1 / RFU, PTTG1IP / Fold change vs veh, PTTG1IP / RFU, CAPN2 / Fold change vs veh, CAPN2 / RFU, MED14 / Fold change vs veh, MED14 / RFU, SNORA58 / Fold change vs veh, SNORA58 / RFU, C1orf63 / Fold change vs veh, C1orf63 / RFU, LRRFIP1 / Fold change vs veh, LRRFIP1 / RFU, NDUFAF7 / Fold change vs veh, NDUFAF7 / RFU, SLC12A2 / Fold change vs veh, SLC12A2 / RFU, IBTK / Fold change vs veh, IBTK / RFU, ESF1 / Fold change vs veh, ESF1 / Fold change vs veh, TMEM50B / RFU, TAOK1 / Fold change vs veh, TAOK1 / RFU, ACBD3 / Fold change vs veh, ACBD3 / RFU, TMA16 / Fold change vs veh, TMA16 / RFU, RWDD3 / Fold change vs veh, RWDD3 / RFU, BCAT1 / Fold change vs veh, BCAT1 / RFU, EDEM3 / Fold change vs veh, EDEM3 / RFU, TMEM33 / Fold change vs veh, TMEM33 / RFU, WDR75 / Fold change vs veh, WDR75 / RFU, AHCTF1 / Fold change vs veh, AHCTF1 / RFU, TFRC / Fold change vs veh, TFRC / RFU, ZDHHC17 / Fold change vs veh, ZDHHC17 / RFU, NOM1 / Fold change vs veh, NOM1 / RFU, ARL8B / Fold change vs veh, ARL8B / RFU, ZBTB11 / Fold change vs veh, ZBTB11 / RFU, TAMM41 / Fold change vs veh, TAMM41 / RFU, KIAA1704 /// LOC100996395 / Fold change vs veh, KIAA1704 /// LOC100996395 / RFU, ING1 / Fold change vs veh, ING1 / RFU, TRMT61B / Fold change vs veh, TRMT61B / RFU, FUBP3 / Fold change vs veh, FUBP3 / RFU, TP53 / Fold change vs veh, TP53 / RFU, TNKS2 / Fold change vs veh, TNKS2 / RFU, ZFP14 / Fold change vs veh, ZFP14 / RFU, ACTR2 / Fold change vs veh, ACTR2 / RFU, PPP3R1 / Fold change vs veh, PPP3R1 / RFU, PIK3R1 / Fold change vs veh, PIK3R1 / RFU, HNRNPA1 / Fold change vs veh, HNRNPA1 / RFU, RNF170 / Fold change vs veh, RNF170 / RFU, ZNF28 / Fold change vs veh, ZNF28 / RFU, RNGTT / Fold change vs veh, RNGTT / RFU, OGT / Fold change vs veh, OGT / RFU, BRD1 / Fold change vs veh, BRD1 / RFU, MARS / Fold change vs veh, MARS / RFU, ZNF655 / Fold change vs veh, ZNF655 / RFU, FAHD1 / Fold change vs veh, FAHD1 / RFU, BDP1 / Fold change vs veh, BDP1 / RFU, LRRCC1 / Fold change vs veh, LRRCC1 / RFU, ARID1A / Fold change vs veh, ARID1A / RFU, ZNF146 / Fold change vs veh, ZNF146 / RFU, ZNF330 / Fold change vs veh, ZNF330 / RFU, GPN3 / Fold change vs veh, GPN3 / RFU, C9orf123 / Fold change vs veh, C9orf123 / RFU, N4BP2L2 / Fold change vs veh, N4BP2L2 / RFU, ARFIP1 / Fold change vs veh, ARFIP1 / RFU, FAM179B / Fold change vs veh, FAM179B / RFU, BCL10 / Fold change vs veh, BCL10 / RFU, UHRF1BP1L / Fold change vs veh, UHRF1BP1L / RFU, BET1 / Fold change vs veh, BET1 / RFU, CNOT2 / Fold change vs veh, CNOT2 / RFU, ZNF268 / Fold change vs veh, ZNF268 / Fold change vs veh, ZNF507 / RFU, DGCR2 / Fold change vs veh, DGCR2 / RFU, WDSUB1 / Fold change vs veh, WDSUB1 / Fold change vs veh, HSP90B1 /// MIR3652 / RFU, ADSS / Fold change vs veh, ADSS / RFU, GK / Fold change vs veh, GK / RFU, ZNF148 / Fold change vs veh, ZNF148 / RFU, TAF9 / Fold change vs veh, TAF9 / RFU, SLC1A5 / Fold change vs veh, SLC1A5 / RFU, SLMO2 / Fold change vs veh, SLMO2 / RFU, ABCC4 / Fold change vs veh, ABCC4 / RFU, LOC101060439 /// RAP1B / Fold change vs veh, LOC101060439 /// RAP1B / RFU, RFX7 / Fold change vs veh, RFX7 / RFU, GTPBP10 / Fold change vs veh, GTPBP10 / RFU, CNEP1R1 / Fold change vs veh, CNEP1R1 / RFU, BIVM-ERCC5 /// ERCC5 / Fold change vs veh, BIVM-ERCC5 /// ERCC5 / RFU, ILF3 / Fold change vs veh, ILF3 / RFU 11762660_at / Fold change /veh 11762660_at / RFU VCAN (11757783_s_at) / Fold change /veh VCAN (11757783_s_at) / RFU DDX43 (11728927_at) / Fold change /veh DDX43 (11728927_at) / RFU KRT8 (11758188_x_at) / Fold change /veh KRT8 (11758188_x_at) / RFU NKD1 (11759106_at) / Fold change /veh NKD1 (11759106_at) / RFU SRD5A1 (11742802_a_at) / Fold change /veh SRD5A1 (11742802_a_at) / RFU TPSAB1 /// TPSB2 (11721975_s_at) / Fold change /veh TPSAB1 /// TPSB2 (11721975_s_at) / RFU GSTM3 (11746129_a_at) / Fold change /veh GSTM3 (11746129_a_at) / RFU IL23R (11737362_x_at) / Fold change /veh IL23R (11737362_x_at) / RFU TMEM51 (11727254_a_at) / Fold change /veh TMEM51 (11727254_a_at) / RFU PIWIL2 (11732686_x_at) / Fold change /veh PIWIL2 (11732686_x_at) / RFU ORM1 (11744905_x_at) / Fold change /veh ORM1 (11744905_x_at) / RFU CCDC152 (11743942_at) / Fold change /veh CCDC152 (11743942_at) / RFU ECM1 (11717891_a_at) / Fold change /veh ECM1 (11717891_a_at) / RFU IL23R (11748794_a_at) / Fold change /veh IL23R (11748794_a_at) / RFU TNFAIP8L3 (11732012_x_at) / Fold change /veh TNFAIP8L3 (11732012_x_at) / RFU MBOAT4 (11741988_at) / Fold change /veh MBOAT4 (11741988_at) / RFU 11764193_at / Fold change /veh 11764193_at / RFU TMEM53 (11763286_at) / Fold change /veh TMEM53 (11763286_at) / RFU MAGEB2 (11727129_at) / Fold change /veh MAGEB2 (11727129_at) / RFU TMEM200A (11744735_a_at) / Fold change /veh TMEM200A (11744735_a_at) / RFU CCDC152 (11751479_a_at) / Fold change /veh CCDC152 (11751479_a_at) / RFU FAM211A (11726209_a_at) / Fold change /veh FAM211A (11726209_a_at) / RFU RGS16 (11746705_a_at) / Fold change /veh RGS16 (11746705_a_at) / RFU VCAN (11755009_s_at) / Fold change /veh VCAN (11755009_s_at) / RFU RHOB (11743442_s_at) / Fold change /veh RHOB (11743442_s_at) / RFU RGS16 (11720943_a_at) / Fold change /veh RGS16 (11720943_a_at) / RFU RGS16 (11720944_at) / Fold change /veh RGS16 (11720944_at) / RFU, VPS4B / Fold change vs veh, VPS4B / RFU, CREB1 / Fold change vs veh, CREB1 / RFU, DNAJC13 / Fold change vs veh, DNAJC13 / RFU, GNAQ / Fold change vs veh, GNAQ / RFU, CDK5R1 / Fold change vs veh, CDK5R1 / RFU, ZRANB3 / Fold change vs veh, ZRANB3 / RFU, CUL4A / Fold change vs veh, CUL4A / RFU, CCNY / Fold change vs veh, CCNY / RFU, UFL1 / Fold change vs veh, UFL1 / RFU, COG3 / Fold change vs veh, COG3 / RFU, DIAPH2 / Fold change vs veh, DIAPH2 / RFU, SKA2 / Fold change vs veh, SKA2 / RFU, AFF3 / Fold change vs veh, AFF3 / RFU, LMF1 / Fold change vs veh, LMF1 / RFU, IPO11 / Fold change vs veh, IPO11 / RFU, DFFB / Fold change vs veh, DFFB / RFU, FOXP1 / Fold change vs veh, FOXP1 / RFU, CARD8 / Fold change vs veh, CARD8 / RFU, STRN3 / Fold change vs veh, STRN3 / RFU, ADK / Fold change vs veh, ADK / RFU, RASSF2 / Fold change vs veh, RASSF2 / RFU, WIPF1 / Fold change vs veh, WIPF1 / RFU, LARP1B / Fold change vs veh, LARP1B / RFU, RASA1 / Fold change vs veh, RASA1 / RFU, RB1 / Fold change vs veh, RB1 / RFU, PPFIA1 / Fold change vs veh, PPFIA1 / RFU, MAT2A / Fold change vs veh, MAT2A / RFU, CCT5 / Fold change vs veh, CCT5 / RFU, WDR92 / Fold change vs veh, WDR92 / RFU, CUX1 / Fold change vs veh, CUX1 / RFU, TTC7A / Fold change vs veh, TTC7A / RFU, TMEM135 / Fold change vs veh, TMEM135 / RFU, DEPTOR / Fold change vs veh, DEPTOR / RFU, CPM / Fold change vs veh, CPM / RFU, DNAJB6 / Fold change vs veh, DNAJB6 / RFU, CACNA2D3 / Fold change vs veh, CACNA2D3 / RFU, DTX4 / Fold change vs veh, DTX4 / RFU, TFCP2 / Fold change vs veh, TFCP2 / RFU, GMCL1 /// GMCL1P1 / Fold change vs veh, GMCL1 /// GMCL1P1 / RFU, AEBP2 / Fold change vs veh, AEBP2 / RFU, SNHG1 /// SNORD22 /// SNORD25 /// SNORD26 /// SNORD27 /// SNORD28 /// SNORD29 /// SNORD31 / Fold change vs veh, SNHG1 /// SNORD22 /// SNORD25 /// SNORD26 /// SNORD27 /// SNORD28 /// SNORD29 /// SNORD31 / Fold change (Aza/veh), C12orf56 (ProbeSet 11735607_a_at) / Fold change (ACY-1035/veh), C12orf56 (ProbeSet 11735607_a_at) / Fold change (Aza/veh), FGFR1OP (ProbeSet 11751329_s_at) / Fold change (ACY-1035/veh), FGFR1OP (ProbeSet 11751329_s_at) / Fold change (Aza/veh), VPS36 (ProbeSet 11739960_a_at) / Fold change (ACY-1035/veh), VPS36 (ProbeSet 11739960_a_at) / RFU SYPL1 (11715823_x_at) / Fold change /veh SYPL1 (11715823_x_at) / RFU IGFBP7 (11715501_s_at) / Fold change /veh IGFBP7 (11715501_s_at) / RFU REEP3 (11722064_at) / Fold change /veh REEP3 (11722064_at) / RFU IGLL1 (11728026_x_at) / Fold change /veh IGLL1 (11728026_x_at): dose or concentration left out as unconfirmed. As to conditions: MV-4-11 cells, 48 hours.

As to `Nc1ccc(-c2cccs2)cc1NC(=O)c1ccc2c(c1)cc(C1CC1)n2CCN1CCOCC1` [ACY-1035], the “RFU CMKLR1 (11741424_a_at)” value worked out at 17.99 RFU.
